Where “and” joins values, the source holds several entries; their conditions need not be identical. Equal entries are not always repeated.

This series in a line: solvent given as SMILES.

`COc1cc(N(CC(=O)[O-])CC(=O)[O-])c2ncccc2c1` showed a fluorescence lifetime (in O) of 0.84 ns.
Turning to `Cn1c(-c2ccc(-c3nc(-c4ccccc4)c(-c4ccccc4)n3C)cc2)nc(-c2ccccc2)c1-c1ccccc1`, for the setting “in CC#N”, the fluorescence lifetime is 1.24 ns and 1.1 ns.
With `CCCCCCCCOc1cc(/C=C/c2cc(OCCCCCCCC)c(/C=C/c3cc(OCCCCCCCC)c(/C=C/c4ccncc4)cc3OCCCCCCCC)cc2OCCCCCCCC)c(OCCCCCCCC)cc1/C=C/c1ccncc1`, the fluorescence lifetime (in ClCCl) worked out at 1.27 ns.
For the setting “in C1CCOC1”, `CCOC(=O)c1csc2[n+]1[B-](F)(F)OC(c1ccc(N(C)C)cc1)=N2` came in with a fluorescence lifetime of 2.1 ns.
`CC1=CC(C)=[N+]2C1=Cc1c(C)cc(C)n1[B-]2(F)F` registered a fluorescence lifetime (in CCCCCC) of 5.85 ns, a fluorescence lifetime (in CO) of 5.95 ns and a fluorescence lifetime (in ClCCl) of 5.73 ns.
Where the note is “in ClCCl”, `CCN(CC)c1ccc2c(-c3ccccc3C(=O)O)c3c([o+]c2c1)/C(=C/c1nc(C)n2ccccc12)CCC3` displayed a fluorescence lifetime of 2.21 ns.
The compound `CCCCCCCCCCCCOc1cc2cc(N(C)C)ccc2cc1C=C(C#N)C#N` registered a fluorescence lifetime (in CS(C)=O) of 2.2 ns.
The compound `Nc1ccc(N2C(=O)c3ccc4c5ccc6c7c(ccc(c8ccc(c3c48)C2=O)c75)C(=O)N(c2ccc(O)cc2)C6=O)cc1` showed a fluorescence lifetime (in CN(C)C=O) of 3.1 ns.
As to `N#Cc1nc2c3ccc(-n4c5ccccc5c5ccccc54)cc3c3cc(-n4c5ccccc5c5ccccc54)ccc3c2nc1C#N`, the fluorescence lifetime (in O=P(c1ccccc1)(c1ccccc1)c1cccc(-c2cc(-n3c4ccccc4c4ccccc43)cc(-n3c4ccccc4c4ccccc43)c2)n1) came to 29.5 ns.
Where the note is “in ClCCl”, `N#Cc1ccc(-n2c(-c3ccc(-c4ccc(-n5c6ccccc6c6ccccc65)cc4)s3)nc3c4ccccc4c4ccccc4c32)c2ccccc12` gave a fluorescence lifetime of 4.3 ns.
In the case of `c1ccc2ccccc2c1`, the fluorescence lifetime (in C1CCCCC1) was 168 ns and 96 ns.
Compound `CC1=C(c2cccs2)C(C)=[N+]2C1=C(c1ccccc1)c1c(C)c(-c3cccs3)c(C)n1[B-]2(F)F` had a fluorescence lifetime (in Cc1ccccc1) of 3.4 ns.
Regarding `CC(C)c1ccc2ccc3cccc4ccc1c2c34`, the fluorescence lifetime reads like this: (in CCCCCC) 50.6 ns; (in CO) 149 ns; (in ClCCl) 77.8 ns.
Take `Cc1cc(C)c2nc3[nH]c(=O)[nH]c(=O)c3nc2c1`: the fluorescence lifetime (in CC#N) was 1.65 ns.
In turn, `COc1ccc2c(c1)-c1cc(OC)ccc1C2=O` displayed a fluorescence lifetime (in C1CCCCC1) of 1.8 ns, a fluorescence lifetime (in CC#N) of 15.7 ns and a fluorescence lifetime (in CCO) of 0.8 ns.
Compound `CCOC(=O)c1ccc2c(c1)[se]c1c3ccc(C(=O)OCC)cc3n(C)c21` had a fluorescence lifetime (in CCCO) of 0.175 ns.
Regarding `Fc1nc(F)c(F)c(/C=C2/C(c3c(F)c(F)nc(F)c3F)=Cc3ccccc32)c1F`, for the setting “in CC#N”, the fluorescence lifetime is 0.3 ns.
Same read-out and setting: as for `COC(=O)CC1(C(=O)OC)Oc2c(c(C(C)=O)c3c(c2C(C)=O)OCO3)O1`, the figure is 22.4 ns.
With `COc1ccc(C2=C3C(C)=CC(C=Cc4ccc(C(=O)OC5C[C@H]6CCC5(C)C6(C)C)cc4)=[N+]3[B-](F)(F)n3c(C)cc(C)c32)cc1` (some centres undefined), the fluorescence lifetime (in Cc1ccccc1) amounted to 3.82 ns.
Turning to `CC[n+]1c(C=C2C(=O)C(C=C3N(C)c4ccccc4C3(C)C)=C2[O-])[se]c2ccccc21`, the fluorescence lifetime (in CO) is 0.41 ns and the fluorescence lifetime (in ClC(Cl)Cl) was 2.44 ns.
Where the note is “in c1ccccc1”, `O=c1oc2ccc3ccc(O)cc3c2nc1-c1ccccc1` showed a fluorescence lifetime of 4.8 ns.
Take `CC1=C(I)C(C)=[N+]2C1=C(c1c(-c3ccccn3)nc3ccccn13)c1c(C)cc(C)n1[B-]2(F)F`: the fluorescence lifetime (in ClCCl) stood at 0.3 ns.

Source of the values: the Deep4Chem optical property database.
